The values below come from ChEMBL document CHEMBL3638482, “2,3-disubstituted pyrazinesulfonamides as CRTH2 inhibitors” (2014).

The test concerns the target T1, Prostaglandin D2 receptor 2 (Homo sapiens, UniProt Q9Y5Y4).
T1 sequence (Q9Y5Y4 whole entry): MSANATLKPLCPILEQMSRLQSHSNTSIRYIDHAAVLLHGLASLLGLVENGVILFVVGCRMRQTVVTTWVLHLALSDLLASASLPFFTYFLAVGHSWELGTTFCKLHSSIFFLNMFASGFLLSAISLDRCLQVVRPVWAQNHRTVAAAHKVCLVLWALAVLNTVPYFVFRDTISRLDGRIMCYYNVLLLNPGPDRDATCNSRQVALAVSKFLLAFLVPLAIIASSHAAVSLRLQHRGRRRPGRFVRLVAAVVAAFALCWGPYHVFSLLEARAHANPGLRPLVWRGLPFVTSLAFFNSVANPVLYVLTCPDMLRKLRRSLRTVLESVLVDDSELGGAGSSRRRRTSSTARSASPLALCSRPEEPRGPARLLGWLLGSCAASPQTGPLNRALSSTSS
Description: The inhibitory activity can be investigated by a radioligand binding assay (Sawyer et al., Br. J. Pharmocol 2002, 137, 1163-72). The radioligand binding assay was performed at room temperature in binding buffer (10 mM HEPES/KOH pH […], with protease inhibitor cocktail tablets), containing 1.5 nM [3H]PGD2 (Amersham, 156 Cie/mmol), and 10 ug of hCRTH2 HEK293 (EBNA) cell membrane protein in a final volume of 100 ul in 96 well plates (Corning, USA). Non-specific binding was determined in the presence of 1 uM PGD2 (Cayman, USA). Competing pyrazine sulfonamides were diluted in dimethylsulphoxide so that the total volume of dimethylsulfoxide was kept constant at 1% dimethylsulphoxide (Me2SO). 10 ul of the pyrazine sulfonamides were added. Incubation (60 min at room temperature) was terminated by rapid filtration through 96 wells hydrophobic GF/C Unifilter plates.

`CCN(Cc1ccc(-c2nccnc2NS(=O)(=O)c2ccccc2C(F)(F)F)cc1)c1ccccc1`: the Ki – broadly, a dissociation constant, usually derived from enzyme kinetics or from competition with a known ligand – was found to be 590 nM.
The result for `O=S(=O)(Nc1nccnc1-c1ccc(Cn2c(-c3ccccn3)cc3ccccc32)cc1)c1ccccc1C(F)(F)F` reads 850 nM; that for `O=S(=O)(Nc1nccnc1-c1ccc(COc2ccc(Cl)nc2)cc1)c1ccccc1C(F)(F)F`, 720 nM.
Under `Cc1cc2ccccc2n1Cc1ccc(-c2nccnc2NS(=O)(=O)c2ccccc2C(F)(F)F)cc1` stands 3060 nM; under `O=S(=O)(Nc1nccnc1-c1ccc(COc2ccccc2)cc1)c1ccccc1C(F)(F)F`, 1320 nM; under `O=S(=O)(Nc1nccnc1-c1ccc(CN(Cc2ccccc2)c2ccccn2)cc1)c1ccccc1Cl`, 2640 nM.
`N#Cc1ccc(OCc2ccc(-c3nccnc3NS(=O)(=O)c3ccccc3C(F)(F)F)cc2)cc1`: the Ki is 1590 nM.
On to `COc1ccc2c(c1)cc(C)n2Cc1ccc(-c2nccnc2NS(=O)(=O)c2ccccc2Cl)cc1`, for which the Ki turned out to be 2210 nM.
As for `CN(Cc1ccc(-c2nccnc2NS(=O)(=O)c2ccccc2C(F)(F)F)cc1)c1ccc(Cl)cc1Cl`, the Ki was determined as 2820 nM.
The result for `CN(Cc1ccc(-c2nccnc2NS(=O)(=O)c2ccccc2C(F)(F)F)cc1)c1cccc(F)c1` reads 700 nM; that for `COc1ccc(OCc2ccc(-c3nccnc3NS(=O)(=O)c3ccccc3C(F)(F)F)cc2)cc1`, 2600 nM.
With `O=S(=O)(Nc1nccnc1-c1ccc(CN2CCOc3ccccc32)cc1)c1ccccc1C(F)(F)F`, the Ki amounted to 620 nM.
Regarding `CN(Cc1ccc(-c2nccnc2NS(=O)(=O)c2ccccc2Cl)cc1)c1ccc(C#N)cc1`, the Ki was 1490 nM.
Under `O=S(=O)(Nc1nccnc1-c1ccc(Cn2ccc3cc(F)ccc32)cc1)c1ccccc1C(F)(F)F` stands 950 nM.
With `CN(Cc1ccc(-c2nccnc2NS(=O)(=O)c2ccccc2C(F)(F)F)cc1)c1ccc(Cl)c(Cl)c1`, the inhibitory constant (Ki) stood at 1580 nM.
Under `O=S(=O)(Nc1nccnc1-c1ccc(CN2CCc3ccccc32)cc1)c1ccccc1C(F)(F)F` stands 2690 nM; under `O=S(=O)(Nc1nccnc1-c1ccc(COc2ccc(F)cc2)cc1)c1ccccc1C(F)(F)F`, 480 nM; under `O=S(=O)(Nc1nccnc1-c1ccc(CN(Cc2ccccc2)c2ccccn2)cc1)c1ccccc1C(F)(F)F`, 4440 nM.
As for `CN(Cc1ccc(-c2nccnc2NS(=O)(=O)c2ccccc2Cl)cc1)c1ccc(F)cc1F`, the Ki was found to be 2950 nM.
`CN(Cc1ccc(-c2nccnc2NS(=O)(=O)c2ccccc2C(F)(F)F)cc1)c1ccc(Cl)cc1`: the Ki was found to be 1470 nM.
The result for `O=S(=O)(Nc1nccnc1-c1ccc(Cn2ccc3ccc(F)cc32)cc1)c1ccccc1C(F)(F)F` reads 1930 nM; that for `O=S(=O)(Nc1nccnc1-c1ccc(COc2cccc(Cl)c2)cc1)c1ccccc1C(F)(F)F`, 2900 nM.
Consider `CN(Cc1ccc(-c2nccnc2NS(=O)(=O)c2ccccc2C(F)(F)F)cc1)c1ccc(C#N)cc1`, for which the Ki came out at 470 nM.
The result for `Cc1cc2cc(Cl)ccc2n1Cc1ccc(-c2nccnc2NS(=O)(=O)c2ccccc2C(F)(F)F)cc1` reads 4650 nM.
